Measured values from patent US20080200393A1, “Method and Composition For Treating Angiogenesis and For Preventing Cancer Progression and Metastasis Comprising a Prostate Secretory Protein (Psp94) Family Member” (Ambrillia Biopharma Inc., priority 2004, published 2008).
Where no end group is shown, it is not given here.

Test system: U-87 cells
Assay: U-87 cell migration on hyaluronic acid
Assay type: cell-based
Conditions: 300 ug/ml, 48 hrs pretreatment; HA-coated filters, 2 hours
Protocol: The biological activity of a desired polypeptide may further be determined using migration assays. U-87 cells are treated with a polypeptide of the present invention (e.g., any PCK3145 derivative, fragment, analog, such as for example, any one of or combinations of SEQ ID NOs.: 9 to 98). The treated cells are trypsinised, counted, and seeded on HA-coated filters inserted in modified Boyden Chambers as described herein or in the art. Cell migration is allowed to proceed for 2 hours at 37° C. Filters are then stained for cells that have migrated through the filter. A decreased basal U-87 cell migration observed in cells treated with a polypeptide of the present invention is indicative of a biologically active polypeptide (i.e., a biologically active PCK3145 derivative, fragment, analog).
Migration/invasion of cancer cells is a key event in tumor metastasis. In vitro, this process can be reconstituted by plating cells onto ECM-coated filters inserted in modified Boyden chemotactic chambers. The effect of the PCK3145 derivative can be monitored by the number of cells that had migrated comparatively to untreated control cells. […] U-87 cells were treated with the PCK3145 derivative (300 ug/ml, 48 hrs), trypsinised, counted, and seeded on HA-coated filters inserted in modified Boyden Chambers. […]

## EWQTDNCETCTCYET (cysteine pairing not given here) [PCK3145 derivative, PCK3145 derivative with acetylaminomethyl groups on the three cysteines]
  decrease of basal U-87 cell migration: approximately 3 fold
